Measured values from patent US9642859B2, “Use of capsazepine and analogs thereof to treat cancer” (THE BOARD OF REGENTS OF THE UNIVERSITY OF TEXAS SYSTEM, priority 2012, dated 2017).
“Also recorded” adds a separate entry of the source.

How the values were obtained:
[1] = system: immortalized human bronchiolar epithelial cell line transformed with a TRPV1 insert; conditions: TRPV1-overexpressing cultured cells; cited from earlier work
OKF6 cells = experiment: Cell viability assay of immortalized non-malignant oral keratinocytes; assay type: cell-based; conditions: 24 hours
Source text: FIG. 1D-2. […] Treatment with high concentrations of CAP induces death of normal, non-malignant OKF6 cells. The effect of which was reversed by the pre-treatment with CPZ.

Cal27 = experiment: Additional cell proliferation assay, Cal27; assay type: cell-based, human; conditions: Cal27, 24 hour treatment
Source text: (§1) Observed reductions in cell proliferation in these additional in vitro studies are as follows: SCC4, 40%; HSC3, 50%; SCC25, 80%; Cal27, 15%; MDA231, 56%; and LnCap, 37%.

[2] = system: prostate cancer cell line LnCap; experiment: Additional cell proliferation assay, LnCap; assay type: cell-based; conditions: 24 hour treatment
Source text: as §1

SCC25 [3] = experiment: Cell cycle analysis by DNA profile FACS, SCC25; assay type: cell-based, human; conditions: 24 hours
Protocol: (§2) In particular, Table 1 provides additional cell cycle distribution data of OSCC cells (%) treated with 0 μM, 30 μM, 60 μM, or 90 μM CPZ for 24 hours. Data for OSCC cell lines HSC3, SCC4, and SCC25 are also provided in diagrams of FIGS. 1G-1, 1G-2, and 1G-3, respectively.

SCC4 [4] = experiment: Additional cell proliferation assay, SCC4; assay type: cell-based, human; conditions: SCC4, 24 hour treatment
Source text: as §1

SCC4 xenografts = experiment: OSCC mouse xenograft model, SCC4; assay type: in vivo, athymic nude (nu/nu) mice
Source text: Animals. Six week-old female athymic nude (nu/nu) mice were purchased from HARLAN Laboratories (Indianapolis, Ind.) and used in a laminar air-flow cabinet under pathogen-free conditions. They were provided with a 12-h light/dark schedule at controlled temperature and humidity with food and water ad libitum. Mice were allowed to acclimate for at least one week prior to the start of the experiments. All procedures were approved by the UTHSCSA (University of Texas Health Science Center—San Antonio) Institutional Animal Care and Use Committee.
OSCC Mouse Xenograft Model. Mice were injected subcutaneously in the right flank with 2×10^6 HSC3, SCC4, or SCC25 cells in 0.1 ml of sterile phosphate buffered saline (each of these cell lines is published in scientific literature). Four weeks post-inoculation, tumors had grown to an average volume of 110 mm^3. Mice were then divided into two experimental groups of five animals each, which received the following treatments as intra-tumoral injections: group A, vehicle control (7% DMSO in sterile saline); group B, CPZ treatment (40 μg). The injections were repeated every other day and for a total of at least 14 days.
Treatments. CPZ (5 mg) was diluted in 250 μl of 100% DMSO to yield a final concentration of 20 μg/μl of stock solution. Stock solution (100 m) was subsequently diluted in 7% DMSO in sterile saline generating a final concentration of 1 μg/μl. […] Control xenografts were injected intra-tumorally with 40 μl of vehicle control (7% DMSO). Mice were monitored daily for tumor growth, cachexia, and weight loss. Tumor volumes and body weight were recorded every other day. Tumor volumes were calculated by the formula: (4π/3)×(w/2)2×(l/2), where w=width and l=length. Measurements were made using a digital caliper. At the conclusion of the experiments, mice were anaesthetized with isoflurane and cervical dislocation, blood was collected, and the serum was separated and stored at −80° C. until assayed. Biochemical analysis of serum was performed by the Mouse Metabolic Phenotyping Center (Yale School of Medicine, New Haven, Conn.). […]

[5] = system: nicotinic acetylcholine receptors; conditions: cited from earlier work
HSC3 = experiment: Cell cycle analysis by DNA profile FACS, HSC3; assay type: cell-based, human; conditions: 24 hours
Protocol: as §2

SCC4 [6] = experiment: Cell cycle analysis by DNA profile FACS, SCC4; assay type: cell-based, human; conditions: 24 hours
Protocol: as §2

[7] = system: CFA-induced mechanical hyperalgesia; conditions: guinea pigs; cited from earlier work
SCC25 [8] = experiment: Additional cell proliferation assay, SCC25; assay type: cell-based, human; conditions: SCC25, 24 hour treatment
Source text: as §1

[9] = system: MDA231 breast cancer cells; experiment: Cell viability assay of MDA231 cells with and without NAC; assay type: cell-based, human; conditions: 24 h

Oc1cc2c(cc1O)CN(C(=S)NCCc1ccc(Cl)cc1)CCC2 [CPZ, 2-[2-(4-chlorphenyl)ethylamino-thiocarbonyl]-7,8-dihydroxy-2,3,4,5-tetrahydro-1H-2-benzazepine]
reversal of CAP-induced apoptosis by CPZ [1]: failed to reverse these effects | effect of CPZ on CAP-induced reduction in cell viability (OKF6 cells; CAP 150 μM / CPZ 30 μM): reversed the effects | toxicity on normal, non-malignant cells (OKF6 cells; CPZ 30 μM): non-toxic effect; also recorded: no toxicity was observed | reduction in cell proliferation (Cal27): 15% | reduction in cell proliferation [2]: 37% | G0/G1 (SCC25 [3]; SCC25, CPZ 30 μM): 42.92% | G2/M (SCC25 [3]; SCC25, CPZ 30 μM): 3.3% | S (SCC25 [3]; SCC25, CPZ 30 μM): 9.01% | SubG1 (SCC25 [3]; SCC25, CPZ 30 μM): 44.77% | G0/G1 (SCC25 [3]; SCC25, CPZ 60 μM): 28.63% | G2/M (SCC25 [3]; SCC25, CPZ 60 μM): 6.11% | S (SCC25 [3]; SCC25, CPZ 60 μM): 14.78% | SubG1 (SCC25 [3]; SCC25, CPZ 60 μM): 50.48% | G0/G1 (SCC25 [3]; SCC25, CPZ 90 μM): 17.23% | G2/M (SCC25 [3]; SCC25, CPZ 90 μM): 2.5% | S (SCC25 [3]; SCC25, CPZ 90 μM): 10.36% | SubG1 (SCC25 [3]; SCC25, CPZ 90 μM): 69.91% | reduction in cell proliferation (SCC4 [4]): 40% | tumor growth rate (SCC4 xenografts; 40 μg CPZ intra-tumoral every other day, two weeks, p<0.05): significant reduction in tumor growth rate | growth of vehicle-control-treated tumors versus CPZ treated (SCC4 xenografts; 40 μg CPZ, day sixteen, p<0.01): two-fold greater | difference in tumor growth rates between vehicle control and treated mice (SCC4 xenografts; 60 μg CPZ, repeat experiments (data not shown)): 3 fold | effect on nicotinic acetylcholine receptors [5]: Inhibitis | G0/G1 (HSC3; HSC3, CPZ 30 μM): 47.76% | G2/M (HSC3; HSC3, CPZ 30 μM): 20.3% | S (HSC3; HSC3, CPZ 30 μM): 13.47% | SubG1 (HSC3; HSC3, CPZ 30 μM): 18.47% | G0/G1 (HSC3; HSC3, CPZ 60 μM): 24.09% | G2/M (HSC3; HSC3, CPZ 60 μM): 7.37% | S (HSC3; HSC3, CPZ 60 μM): 11.23% | SubG1 (HSC3; HSC3, CPZ 60 μM): 57.31% | G0/G1 (HSC3; HSC3, CPZ 90 μM): 23.53% | G2/M (HSC3; HSC3, CPZ 90 μM): 5.08% | S (HSC3; HSC3, CPZ 90 μM): 10.27% | SubG1 (HSC3; HSC3, CPZ 90 μM): 61.12% | G0/G1 (SCC4 [6]; SCC4, CPZ 30 μM): 70.77% | G2/M (SCC4 [6]; SCC4, CPZ 30 μM): 12.14% | S (SCC4 [6]; SCC4, CPZ 30 μM): 15.08% | SubG1 (SCC4 [6]; SCC4, CPZ 30 μM): 2.01% | G0/G1 (SCC4 [6]; SCC4, CPZ 60 μM): 21.03% | G2/M (SCC4 [6]; SCC4, CPZ 60 μM): 24.21% | S (SCC4 [6]; SCC4, CPZ 60 μM): 21.04% | SubG1 (SCC4 [6]; SCC4, CPZ 60 μM): 33.72% | G0/G1 (SCC4 [6]; SCC4, CPZ 90 μM): 15.61% | G2/M (SCC4 [6]; SCC4, CPZ 90 μM): 31.57% | S (SCC4 [6]; SCC4, CPZ 90 μM): 24.83% | SubG1 (SCC4 [6]; SCC4, CPZ 90 μM): 27.99% | CFA-induced mechanical hyperalgesia [7]: Significantly reversed | reduction in cell proliferation (SCC25 [8]): 80% | cytotoxicity [9]: significant dose dependent cytotoxicity
